{"source": "patent US11345712B2", "about": "“Protein-targeting compounds and pharmaceutical compositions thereof, and their therapeutic applications” (BioTheryX, Inc., priority 2019, dated 2022)", "data": [{"tested_on": "MOLM-13 cells", "experiment": "MOLM-13 cell viability assay (CellTiter-Glo)", "assay_type": "cell-based", "settings": "Homo sapiens, MOLM-13, 72 h, 3 days, concentration of 1 μM, read-out: Antiproliferative Activity (inhibition, MOLM-13 cell viability)", "outline": "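Luminescent ATP read-out (CellTiter-Glo, 10 min with shaking) after 3-day compound or DMSO exposure at 37° C, 5% CO2. Cells plated at 2,500/well in RPMI 1640 plus 10% FBS.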", "units": {"cytotoxicity at 1 µM": "%"}, "values": [{"smiles": "CN(C)c1cccc(NC(=O)NCc2cc3c(s2)C(=O)N(C2CCC(=O)NC2=O)C3)c1", "note": "(stereo not drawn) [II-48, 1-(3-(dimethylamino)phenyl)-3-((5-(2,6-dioxopiperidin-3-yl)-6-oxo-5,6-dihydro-4H-thieno[2,3-c]pyrrol-2-yl)methyl)urea]", "cytotoxicity at 1 µM": "> 80"}, {"smiles": "Cc1cc(NC(=O)NCc2cc3c(s2)C(=O)N(C2CCC(=O)NC2=O)C3)cc(N(C)C)c1", "note": "(stereo not drawn) [II-49, 1-(3-(dimethylamino)-5-methylphenyl)-3-((5-(2,6-dioxopiperidin-3-yl)-6-oxo-5,6-dihydro-4H-thieno[2,3-c]pyrrol-2-yl)methyl)urea]", "cytotoxicity at 1 µM": "> 80"}, {"smiles": "CN(C)c1cc(NC(=O)NCc2cc3c(s2)C(=O)N(C2CCC(=O)NC2=O)C3)cc(C(F)(F)F)c1", "note": "(stereo not drawn) [II-50, 1-(3-(dimethylamino)-5-(trifluoromethyl)phenyl)-3-((5-(2,6-dioxopiperidin-3-yl)-6-oxo-5,6-dihydro-4H-thieno[2,3-c]pyrrol-2-yl)methyl)urea]", "cytotoxicity at 1 µM": "> 80"}, {"smiles": "Cc1ccc(NC(=O)NCc2cc3c(s2)C(=O)N(C2CCC(=O)NC2=O)C3)cc1CN(C)C", "note": "(stereo not drawn) [II-51, 1-(3-((dimethylamino)methyl)-4-methylphenyl)-3-((5-(2,6-dioxopiperidin-3-yl)-6-oxo-5,6-dihydro-4H-thieno[2,3-c]pyrrol-2-yl)methyl)urea]", "cytotoxicity at 1 µM": "< 25"}, {"smiles": "CCN(CC)c1ccc(NC(=O)NCc2cc3c(s2)C(=O)N(C2CCC(=O)NC2=O)C3)cc1C", "note": "(stereo not drawn) [II-52, 1-(4-(diethylamino)-3-methylphenyl)-3-((5-(2,6-dioxopiperidin-3-yl)-6-oxo-5,6-dihydro-4H-thieno[2,3-c]pyrrol-2-yl)methyl)urea]", "cytotoxicity at 1 µM": "< 25"}, {"smiles": "CN(C)Cc1cccc(NC(=O)NCc2cc3c(s2)C(=O)N(C2CCC(=O)NC2=O)C3)c1", "note": "(stereo not drawn) [II-53, 1-(3-((dimethylamino)methyl)phenyl)-3-((5-(2,6-dioxopiperidin-3-yl)-6-oxo-5,6-dihydro-4H-thieno[2,3-c]pyrrol-2-yl)methyl)urea]", "cytotoxicity at 1 µM": "< 25"}, {"smiles": "Cc1ccc(NC(=O)NCc2cc3c(s2)C(=O)N(C2CCC(=O)NC2=O)C3)cc1C(C)C", "note": "(stereo not drawn) [II-54, 1-((5-(2,6-dioxopiperidin-3-yl)-6-oxo-5,6-dihydro-4H-thieno[2,3-c]pyrrol-2-yl)methyl)-3-(3-isopropyl-4-methylphenyl)urea]", "cytotoxicity at 1 µM": "> 80"}, {"smiles": "CN(C)c1cc(NC(=O)NCc2cc3c(s2)C(=O)N(C2CCC(=O)NC2=O)C3)ccc1C(F)(F)F", "note": "(stereo not drawn) [II-55, 1-(3-(dimethylamino)-4-(trifluoromethyl)phenyl)-3-((5-(2,6-dioxopiperidin-3-yl)-6-oxo-5,6-dihydro-4H-thieno[2,3-c]pyrrol-2-yl)methyl)urea]", "cytotoxicity at 1 µM": "> 80"}, {"smiles": "CC(C)N(C)c1cccc(NC(=O)NCc2cc3c(s2)C(=O)N(C2CCC(=O)NC2=O)C3)c1", "note": "(stereo not drawn) [II-56, 1-((5-(2,6-dioxopiperidin-3-yl)-6-oxo-5,6-dihydro-4H-thieno[2,3-c]pyrrol-2-yl)methyl)-3-(3-(isopropyl(methyl)amino)phenyl)urea]", "cytotoxicity at 1 µM": "> 80"}, {"smiles": "Cc1ccc(CC(=O)NCc2csc3c2CN(C2CCC(=O)NC2=O)C3=O)cc1Cl", "note": "(stereo not drawn) [II-57, 2-(3-chloro-4-methylphenyl)-N-((5-(2,6-dioxopiperidin-3-yl)-6-oxo-5,6-dihydro-4H-thieno[2,3-c]pyrrol-3-yl)methyl)acetamide]", "cytotoxicity at 1 µM": "50 to 80"}, {"smiles": "COc1cc(NC(=O)NCc2cc3c(s2)C(=O)N(C2CCC(=O)NC2=O)C3)ccc1C", "note": "(stereo not drawn) [II-58, 1-((5-(2,6-dioxopiperidin-3-yl)-6-oxo-5,6-dihydro-4H-thieno[2,3-c]pyrrol-2-yl)methyl)-3-(3-methoxy-4-methylphenyl)urea]", "cytotoxicity at 1 µM": "> 80"}, {"smiles": "Cc1cc(NC(=O)NCc2cc3c(s2)C(=O)N(C2CCC(=O)NC2=O)C3)ccc1N(C)C", "note": "(stereo not drawn) [II-59, 1-(4-(dimethylamino)-3-methylphenyl)-3-((5-(2,6-dioxopiperidin-3-yl)-6-oxo-5,6-dihydro-4H-thieno[2,3-c]pyrrol-2-yl)methyl)urea]", "cytotoxicity at 1 µM": "< 25"}]}]}
